What was measured:
[1] = tested on: human breast cancer patient-derived tumor (OD-BRE-0438); test: Growth inhibition effect of compound A after palbociclib and fulvestrant administration, patient-derived tumor graft in mice; assay type: in vivo; conditions: NOD-SCID mice, after 14 days palbociclib + fulvestrant
Procedure: Example 1 Growth inhibition effect of compound A after palbociclib and fulvestrant administration for human breast cancer patient-derived tumor (OD-BRE-0438) Using NOD-SCID mice (NOD.CB17-Prkdcscid/J, female, Charles River Japan), with 5 to 6 mice per group, the antitumor effect of administering compound A after completion of an administration period with palbociclib and fulvestrant was evaluated.
OD-BRE-0438 is a tumor line from an estrogen receptor-positive breast cancer patient, established by Oncodesign Co. The tumor slices were grafted under the mouse skin and subcultured. The tumors excised from the mice were cut to about 4 mm-square, and a trocar (φ3.5 mm) was used for grafting under the skin of the right flank of each mouse.
A 1 mg/mL solution of β-estradiol (FujiFilm-Wako) was prepared with 99.5% ethanol (FujiFilm-Wako). It was then adjusted to a final concentration of 2.5 μg/mL using supply-use sterilized water. The mouse were given free access to food from the day of tumor grafting until the end of the test.
(§1) The long and short diameters of the tumors were measured using an electronic digital caliper (Digimatic™ caliper by Mitsutoyo Corp.). The tumor volumes were calculated by the following formula.
(§2) Tumor volume (mm^3)=Long diameter (mm)×short diameter (mm)×short diameter (mm)/2
Commercially available palbociclib isethionate (Selleck Chemicals) was adjusted to 10 mg/mL concentration with 50 mM sodium lactate buffer (pH 4.0). A commercially available fulvestrant formulation (trade name: Faslodex Intramuscular Injection 250 mg, by AstraZeneca) was used directly.
Palbociclib and fulvestrant administration was initiated from the 26th day after tumor grafting. Palbociclib was orally administered once per day for 14 days at a dosage of 100 mg/kg (10 mL/kg). Fulvestrant was hypodermically injected on the 26th and 33rd day, at a dosage of 250 mg/kg (5 mL/kg).
On the 40th day, the mice were divided into groups in such a manner that the average tumor volumes were approximately the same in each group. The control group consisted of 6 mice, and the compound A-administered group consisted of 5 mice, at different dosages.
Compound A was dissolved in purified water to a concentration of 2.5 mg/mL. Compound A was orally administered to the mice in each group at a dose of 25 mg/kg (10 mL/kg) or 50 mg/kg (20 mL/kg), once per day for 14 days. The control group was untreated.
The tumor volume and body weight of each mouse were measured on day 3, 7, 10 and 14 after starting administration of compound A. The changes in mean tumor volume in each group are shown in Table 1 and FIG. 1.

[2] = tested on: human breast cancer patient derived tumor (OD-BRE-0438); test: Growth inhibiting effect of compound A on patient-derived tumor graft in mice (Reference Example 1, no pretreatment); assay type: in vivo; conditions: NOD-SCID mice
Procedure: as §1, §2
Reference Example 1 Growth inhibiting effect of compound A on human breast cancer patient derived tumor (OD-BRE-0438)
The antitumor effect of administering compound A was evaluated using NOD-SCID mice (NOD.CB17-Prkdcscid/J, female, Charles River Japan), with 6 mice per group.
Tumor slices were grafted under the mouse skin and subcultured. The tumors excised from the mice were cut to about 4 mm-square, and a trocar ((φ3.5 mm) was used for grafting under the skin of the right flank of each mouse, for evaluation of the antitumor effect.
A 1 mg/mL solution of β-estradiol (FujiFilm-Wako) was prepared with 99.5% ethanol (FujiFilm-Wako). It was then adjusted to a final concentration of […] using supply-use sterilized water. The mice were given free access to food from the day of tumor grafting until the end of the test.
Compound A was dissolved in purified water to a concentration of 2.5 mg/mL. On the 32nd day after tumor grafting, the mice were divided into groups in such a manner that the average tumor volumes were approximately the same in each group. The tumor volumes were calculated by the same method as Example 1.
Compound A was orally administered to the mice in each group at a dose of 50 mg/kg (20 mL/kg), once per day for 14 days. The control group was untreated.
The tumor volume and body weight of each mouse were measured on day 3, 7, 10 and 14 after starting administration of compound A. The changes in mean tumor volume in each group are shown in Table 2 and FIG. 2.

[3] = Day 0 (baseline at grouping), compound A 50 mg/kg oral once per day
[4] = Day 3, compound A 50 mg/kg oral once per day
[5] = Day 7, compound A 50 mg/kg oral once per day
[6] = Day 10, compound A 50 mg/kg oral once per day
[7] = Day 14, compound A 50 mg/kg oral once per day

## CNC(=O)n1ccc2cc(Oc3ccnc(NC(=O)c4ccc(C5CCN(CCO)CC5)cc4)c3)c(OCCOC)cc21 [Compound A, 5-((2-(4-(1-(2-hydroxyethyl)piperidin-4-yl)benzamide)pyridin-4-yl)oxy)-6-(2-methoxyethoxy)-N-methyl-1H-indole-1-carboxamide]
[1]; Day 0 (baseline at grouping), compound A 25 mg/kg oral once per day
  mean tumor volume: 261.4 mm^3
[1]; [3]
  mean tumor volume: 262.6 mm^3
[1]; Day 3, compound A 25 mg/kg oral once per day
  mean tumor volume: 211.9 mm^3
[1]; [4]
  mean tumor volume: 174.8 mm^3
[1]; Day 7, compound A 25 mg/kg oral once per day
  mean tumor volume: 167.6 mm^3
[1]; [5]
  mean tumor volume: 136.1 mm^3
[1]; Day 10, compound A 25 mg/kg oral once per day
  mean tumor volume: 138.3 mm^3
[1]; [6]
  mean tumor volume: 110.4 mm^3
[1]; Day 14, compound A 25 mg/kg oral once per day
  mean tumor volume: 134.1 mm^3
[1]; [7]
  mean tumor volume: 96.6 mm^3
[2]; [3]
  mean tumor volume: 234.1 mm^3
[2]; [4]
  mean tumor volume: 267.0 mm^3
[2]; [5]
  mean tumor volume: 338.8 mm^3
[2]; [6]
  mean tumor volume: 380.8 mm^3
[2]; [7]
  mean tumor volume: 403.4 mm^3

Reference: patent US20230149381A1, “BREAST CANCER THERAPEUTIC AGENT” (Eisai R&D Management Co., Ltd., priority 2020, published 2023)
